Read-outs that look alike come from different tables or passages of the source.
Legend:
JIMT-1 xenograft tumor = assay: Influence of NBP on antitumor efficacy of ab-PTX against JIMT-1 xenograft tumor (Example 4); type: in vivo, Nu/Nu mice
Protocol: After in vitro resuscitation and passage of JIMT-1 cells to a sufficient amount, the cells were counted by a microscope, and diluted with a serum-free medium to adjust the cell count to about 1×10^8 cells/mL. The cell suspension was kept in an ice-water bath. […] Monotherapy group of ab-PTX: intravenous injection of ab-PTX at 15 mg/kg once every week, qw (on days 0, 7, 14, 21, and 28). Administration period: 28 days. Administration volume: 10 mL/kg. Monotherapy group of NBP: […] The administration volume was 10 mL/kg. […] The administration period was 28 days. The administration volume was 10 mL/kg. The solvent group was given normal saline at the same frequency and with the same method as ab-PTX, and was given vegetable oil at the same frequency and with the same method as NBP. […] Animals were weighed at set time once per day after the commencement of administration. At the end of the experiment, after the animals were euthanized by CO2 asphyxiation, the tumors were excised and weighed.

A375 = assay: In vitro tumor cell proliferation, MTT (Example 5); type: cell-based; settings: Homo sapiens, A-375, 30 μM NBP alone, 72 h, read-out: Inhibition rate
Protocol: (§1) This experiment includes a monotherapy group of ab-PTX, a combined therapy group (ab-PTX/NBP), and an NBP group. Different drug concentration gradients were set for each group.
(§2) ab-PTX/NBP group: the final concentration of NBP was 30 μM, and the concentration gradient of ab-PTX was the same as that of the monotherapy group.
(§3) Monotherapy group of NBP: NBP was 2× serially diluted from an initial concentration of 480 μM to 8 concentrations: 480, 240, 120, 60, 30, 15, 7.5, and 3.75 μM, respectively.
(§4) The action time of the drug was 72 h.
(§5) 24 h after adherence, 100 μL of the culture solution containing different concentration gradients of ab-PTX was added to each well of the monotherapy group of ab-PTX; 100 μL of the culture solution containing different concentration gradients of ab-PTX and 30 μM NBP was added to each well of the combined therapy group of ab-PTX/NBP; 100 μL of the culture solution containing different concentration gradients of NBP was added to each well of the monotherapy group of NBP; 3 repeated wells were provided for each concentration of each drug, and the blank wells (only culture medium was present) and the normal wells (drug concentration was 0) were provided.
(§6) The experiment was repeated three times, and the IC50 value was expressed as the mean±SD of the results of the 3 experiments.

A549 [1] = assay: In vitro tumor cell proliferation, MTT (Example 5); type: cell-based; settings: Homo sapiens, 30 μM NBP alone, 72 h, read-out: Inhibition rate
Protocol: as §1, §2, §3, §4, §5, §6

HT29 [2] = assay: In vitro tumor cell proliferation, MTT (Example 5); type: cell-based; settings: Homo sapiens, HT-29, 30 μM NBP alone, 72 h, read-out: Inhibition rate
Protocol: as §1, §2, §3, §4, §5, §6

JIMT-1 = assay: In vitro tumor cell proliferation, MTT (Example 5); type: cell-based; settings: Homo sapiens, 30 μM NBP alone, 72 h, read-out: Inhibition rate
Protocol: as §1, §2, §3, §4, §5, §6

MDA-MB-231 = assay: In vitro tumor cell proliferation, MTT (Example 5); type: cell-based; settings: Homo sapiens, 30 μM NBP alone, 72 h, read-out: Inhibition rate
Protocol: as §1, §2, §3, §4, §5, §6

SK-OV-3 = assay: In vitro tumor cell proliferation, MTT (Example 5); type: cell-based; settings: Homo sapiens, 30 μM NBP alone, 72 h, read-out: Inhibition rate
Protocol: as §1, §2, §3, §4, §5, §6

[3] = tested on: MDA-MB-231, JIMT-1, SK-OV-3, HT29, A549, A375; assay: In vitro proliferation of 6 tumor cell strains, summary statements (Example 5); type: cell-based, Human; settings: NBP alone; 6 cell strains
Protocol: as §1, §2, §3, §4, §5, §6

[4] = tested on: bortezomib chemotherapy-induced peripheral neuropathy; assay: Bortezomib chemotherapy-induced peripheral neuropathy in rats (Example 6); type: in vivo, SD (Sprague Dawley) rats; settings: compared with the model group
Protocol: (The modeling and administration time are shown in FIG. 11. The animal grouping, the administration method, and the doses are detailed in Table 14). […] (2) Thermal pain threshold: measurements were performed on days 0, 7, 14, and 21. Method: IITC Life Science Electronic Von Frey Anesthesio meter was used and the intensity of the light source was adjusted to obtain a thermal pain threshold baseline of about 3-6 s. […] The rats were placed in a plastic compartment on a glass plate, to make the planta centers of the rats be exposed to the light source. […] (3) Mechanical Stimulus Pain Threshold: Measurements were Performed on Days −1, 6, 13, and 20. Method: the rats were placed in a plastic compartment on a wire mesh, left to stand still for 15 min, stimulated using a stimulation probe with a diameter of 0.4 mm of the IITC Life Science Electronic Von Frey Anesthesio meter at the planta centers of the rats by gradually increasing the force until reflexive withdrawal of the rats.

[5] = tested on: MM.1S, Jeko-1, HT29, A549, DU145; assay: In vitro proliferation of 5 cell strains, summary statements (Example 7); type: cell-based, Human; settings: monotherapy of NBP; 5 cell strains
Protocol: Different drug concentration gradients were set for each group.
as §3, §4
3 replicate wells were set for each concentration of each drug, and blank wells (only culture medium was present, and no tumor cells were inoculated) and normal wells (a culture medium inoculated with tumor cells, drug concentration was 0) were set.

HT29 [6] = assay: In vitro tumor cell proliferation, MTT (Example 7); settings: Homo sapiens, HT-29, 72 h
Protocol: (§7) This experiment includes a monotherapy group of Bortezomib, a combined therapy group (Bortezomib/NBP), and a monotherapy group of NBP. Different drug concentration gradients were set for each group.
(§8) Monotherapy group of Bortezomib: (1) MM.1S, Jeko-1, and HT29 cells: Bortezomib was 1.5× serially diluted from an initial concentration of 20 nM to 8 concentrations: 20, 13.33, 8.89, 5.93, 3.95, 2.63, 1.76, and 1.17 nM, respectively; (2) A549 cells: Bortezomib was 2×serially diluted from an initial concentration of 200 nM to 8 concentrations: 200, 100, 50, 25, 12.5, 6.25, 3.13, and 1.56 nM, respectively; and (3) DU145 cells: Bortezomib was 2× serially diluted from an initial concentration of 100 nM to 8 concentrations: 100, 50, 25, 12.5, 6.25, 3.13, 1.56, and 0.78 nM, respectively.
(§9) A certain number of conventionally cultured cells in logarithmic growth phase were inoculated in a 96-well plate with 100 μL per well. […] For adherent cells HT29, A549, and DU145, the above drugs were added 24 h after adherence. 3 replicate wells were set for each concentration of each drug, and blank wells (only culture medium was present, and no tumor cells were inoculated) and normal wells (a culture medium inoculated with tumor cells, drug concentration was 0) were set. The drugs functioned for 72 h, then MTT working solution (5 mg/mL) was added at 20 μL per well; after functioning at 37° C. for 4 h, the supernatant was removed, 150 μL of DMSO (analytically pure) was added; the mixture was fully mixed using a microplate oscillator, the plate was wiped clean, and the optical density (OD) at 550 nm was measured using a microplate reader.
(§10) The cell growth inhibition rate was computed using the following equation:
(§11) Inhibition rate (%)=(OD valuenormal well−OD valueadministration well)/(OD valuenormal well−OD valueblank well)×100%
(§12) Based on the inhibition rate of each concentration, the median inhibitory concentration IC50 of the drug was computed using SPSS19.0.

A549 [7] = assay: In vitro tumor cell proliferation, MTT (Example 7); settings: Homo sapiens, A549, 72 h
Protocol: as §7, §8, §9, §10, §11, §12

DU145 = assay: In vitro tumor cell proliferation, MTT (Example 7); settings: Homo sapiens, DU-145, 72 h
Protocol: as §7, §8, §9, §10, §11, §12

[8] = read-out: Inhibition rate, First dose
[9] = read-out: Inhibition rate, Mean ± SD
[10] = read-out: Inhibition rate, Second dose
[11] = read-out: Inhibition rate, Third dose

For CCCCC1OC(=O)c2ccccc21 (stereo not drawn) [NBP, 3-n-butylphthalide], which “Inhibition rate (tumor weight)” value (JIMT-1 xenograft tumor; NBP 60 mg/kg bid gavage alone) is on record?
The value was 4.0%.

What about the Tumor weight (JIMT-1 xenograft tumor; NBP 60 mg/kg bid gavage alone, mean ± SD, n=8) of the same molecule?
Its Tumor weight is 0.9570 ± 0.2529 g.

What about the tumor growth (JIMT-1 xenograft tumor; ab-PTX 15 mg/kg qw i.v., NBP 60 mg/kg bid gavage, compared with the solvent group) of the same molecule?
The tumor growth was “not obviously affected”.

And the “body weights of the mice” value (JIMT-1 xenograft tumor; ab-PTX 15 mg/kg qw i.v., NBP 6, 20, 60 mg/kg bid gavage, 28 days)?
The value was “no significant difference”.

What about the inhibition at 30 µM (A375) of the same molecule?
Its inhibition at 30 µM is 10.9 ± 0.57%.

And the inhibition at 30 µM (A549 [1])?
The inhibition at 30 µM was 5.12 ± 7.36%.

What about the inhibition at 30 µM (HT29 [2]) of the same molecule?
Its inhibition at 30 µM is 10.1 ± 7.94%.

And the inhibition at 30 µM (JIMT-1)?
The inhibition at 30 µM was 7.39 ± 13.2%.

What about the inhibition at 30 µM (MDA-MB-231) of the same molecule?
The inhibition at 30 µM was 3.43 ± 3.95%.

What about the inhibition at 30 µM (SK-OV-3) of the same molecule?
The inhibition at 30 µM was 12.4 ± 7.41%.

What about the “inhibitory effect on in vitro proliferation” value [3] of the same molecule?
The value was “did not have obvious inhibitory effect”.

And the “mechanical stimulus pain threshold (decrease in model rats)” value ([4]; day 20, NBP 10 and 30 mg/kg bid)?
The value was “significantly reversed”.

What about the “body weights of the rats” value ([4]; day 21, NBP 3, 10 and 30 mg/kg bid gavage) of the same molecule?
Its value is “not obviously changed”.

What about the “thermal pain threshold (decrease in model rats)” value ([4]; day 21, NBP 3, 10 and 30 mg/kg bid) of the same molecule?
Its value is “significantly reversed”.

And the “inhibitory effect on in vitro proliferation” value [5]?
Its value is “does not have obvious inhibitory effect”.

What about the inhibition at 30 µM (HT29 [6]; [8]) of the same molecule?
The inhibition at 30 µM was 9.98%.

What about the inhibition at 30 µM (HT29 [6]; [9]) of the same molecule?
Its inhibition at 30 µM is 10.7 ± 2.79%.

What about the inhibition at 30 µM (HT29 [6]; [10]) of the same molecule?
Its inhibition at 30 µM is 8.27%.

What about the inhibition at 30 µM (HT29 [6]; [11]) of the same molecule?
Its inhibition at 30 µM is 13.7%.

What about the inhibition at 30 µM (A549 [7]; [8]) of the same molecule?
The inhibition at 30 µM was -11.1%.

And the inhibition at 30 µM (A549 [7]; [9])?
Its inhibition at 30 µM is 1.11 ± 10.8%.

What about the inhibition at 30 µM (A549 [7]; [10]) of the same molecule?
Its inhibition at 30 µM is 9.68%.

What about the inhibition at 30 µM (A549 [7]; [11]) of the same molecule?
Its inhibition at 30 µM is 4.74%.

What about the inhibition at 30 µM (DU145; [8]) of the same molecule?
Its inhibition at 30 µM is -2.22%.

And the inhibition at 30 µM (DU145; [9])?
The inhibition at 30 µM was 4.03 ± 5.88%.

And the inhibition at 30 µM (DU145; [10])?
Its inhibition at 30 µM is 9.44%.

What about the inhibition at 30 µM (DU145; [11]) of the same molecule?
The inhibition at 30 µM was 4.87%.

Reference: US20230144023A1, “USE OF BUTYLPHTHALIDE AND DERIVATIVE THEREOF” (CSPC NBP PHARMACEUTICAL CO., LTD, priority 2020, published 2023)
